In ChEMBL document CHEMBL1156413, “New acylated triterpene saponins from Silene fortunei that modulate lymphocyte proliferation” (2002):
Activity calls are given as the source filed them. The calls are words filed in the database; no cut-off is given here.

Columns and labels:
Jurkat [1] = experiment: Induction of apoptosis in human Jurkat cells assessed as early apoptotic cells at 10 uM after 18 hrs using annexin V-FITC staining by flow cytometry; format: functional, cell-based
Jurkat [2] = experiment: Cytotoxicity against human Jurkat cells at 5 to 10 uM; format: functional, cell-based
Jurkat [3] = experiment: Immunomodulatory activity in human Jurkat cells assessed as stimulation index at 0.001 to 5 uM after 36 hrs by [3H]thymidine incorporation assay; format: functional
Jurkat [4] = experiment: Cytotoxicity against human Jurkat cells up to 10 uM; format: functional, cell-based
Jurkat [5] = experiment: Induction of apoptosis in human Jurkat cells assessed as enhancement of early apoptotic cells population at 10 uM after 18 hrs using annexin V-FITC staining by flow cytometry relative to control; format: functional
Jurkat [6] = experiment: Immunomodulatory activity in human Jurkat cells after 36 hrs by [3H]thymidine incorporation assay; format: functional, cell-based
Jurkat [7] = experiment: Cytotoxicity against human Jurkat cells at 1 uM; format: functional, cell-based
Jurkat [8] = experiment: Cytotoxicity against human Jurkat cells at 5 uM; format: functional, cell-based

## C[C@@H]1O[C@@H](O[C@H]2[C@H](OC(=O)[C@]34CCC(C)(C)C[C@H]3C3=CC[C@@H]5[C@@]6(C)CC[C@H](O[C@@H]7O[C@H](C(=O)O)[C@@H](O)[C@H](O)[C@H]7O[C@@H]7O[C@H](CO)[C@H](O)[C@H](O)[C@H]7O)[C@@](C)(C=O)[C@@H]6CC[C@@]5(C)[C@]3(C)C[C@H]4O)O[C@H](C)[C@H](O)[C@@H]2O)[C@H](O)[C@H](O)[C@H]1O
Jurkat [1]
  Activity: inactive
Jurkat [2]
  Activity: inactive

## CC(=O)OC[C@H]1O[C@@H](O[C@H]2[C@@H](OC(C)=O)[C@@H](C)O[C@@H](OC(=O)[C@]34CCC(C)(C)C[C@H]3C3=CC[C@@H]5[C@@]6(C)CC[C@H](O[C@@H]7O[C@H](C(=O)O)[C@@H](O)[C@H](O)[C@H]7O[C@@H]7O[C@H](CO)[C@H](O)[C@H](O)[C@H]7O)[C@@](C)(C=O)[C@@H]6CC[C@@]5(C)[C@]3(C)C[C@H]4O)[C@@H]2O[C@@H]2O[C@@H](C)[C@H](O[C@@H]3OC[C@@H](O)[C@H](O[C@@H]4OC[C@H](O)[C@H](O)[C@H]4O[C@@H]4OC[C@H](O)[C@H](O)[C@H]4O)[C@H]3O)[C@@H](O)[C@H]2O)[C@H](O)[C@@H](O)[C@@H]1O
Jurkat [3]
  Activity: 1.56
Jurkat [4]
  Activity: inactive

## COc1ccc(/C=C/C(=O)O[C@@H]2[C@H](OC(C)=O)[C@@H](O[C@@H]3O[C@@H](C)[C@H](O)[C@@H](O)[C@H]3O)[C@H](OC(=O)[C@]34CCC(C)(C)C[C@H]3C3=CC[C@@H]5[C@@]6(C)CC[C@H](O[C@@H]7O[C@H](C(=O)O)[C@@H](O)[C@H](O)[C@H]7O[C@@H]7O[C@H](CO)[C@H](O)[C@H](O)[C@H]7O)[C@@](C)(C=O)[C@@H]6CC[C@@]5(C)[C@]3(C)C[C@H]4O)O[C@@H]2C)cc1
Jurkat [5]
  fold change (FC): 2.8
Jurkat [6]
  Activity: Dose-dependent effect
Jurkat [3]
  Activity: 1.44
Jurkat [7]
  Activity: Active

## COc1ccc(/C=C/C(=O)O[C@@H]2[C@H](O)[C@@H](O[C@@H]3O[C@@H](C)[C@H](O)[C@@H](O)[C@H]3O)[C@H](OC(=O)[C@]34CCC(C)(C)C[C@H]3C3=CC[C@@H]5[C@@]6(C)CC[C@H](O[C@@H]7O[C@H](C(=O)O)[C@@H](O)[C@H](O)[C@H]7O[C@@H]7O[C@H](CO)[C@H](O)[C@H](O)[C@H]7O)[C@@](C)(C=O)[C@@H]6CC[C@@]5(C)[C@]3(C)C[C@H]4O)O[C@@H]2C)cc1 (mixture of isomers) [JENISSEENSOSIDE C/D]
Jurkat [5]
  fold change (FC): 9
Jurkat [3]
  Activity: 1.36
Jurkat [8]
  Activity: Active
